Measurements reported in patent US20070154449A1, “TIGHT JUNCTION MODULATING PEPTIDES FOR ENHANCED MUCOSAL DELIVERY OF THERAPEUTIC COMPOUNDS” (Nastech Pharmaceutical Company Inc., priority 2005, published 2007).
No end group written: not given here.

Tests used:
[1] = system: in vitro epithelial tissue model; experiment: Papp of drugs with and without PN159, in vitro tissue model; details: for Papp: Galantamine 40 mg/mL, pH 5.0
Procedure: In the present studies, 40 mg/ml galantamine in the lactate salt form was combined with 25, 50, and 100 μM PN159 in solution, pH 5.0 and osmolarity ˜270 mOsm. The combination was tested using an in vitro epithial tissue model to monitor galantamine permeation, transepithelial electrical resistance (TER), and the cytotoxicity of the formulation by LDH and MTT assays as described above. Permeation measurements for galantamine were conducted by standard HPLC analysis, as follows.
Galantamine concentration in the formulation and in the basolateral media (permeation samples) was determined using an isocratic LC (Waters Alliance) method with UV detection. • Column: Waters Symmetry Shield, C18, 5 um, 25×0.46 cm • Mobile phase: 5% ACN in 50 mM ammonium formate, pH 3.0 • Flow rate: 1 ml/min • Column temperature: 30° C. • Calibration curve: 0-400 μg/ml Galantamine HBr • Detection: UV at 285 nm
To evaluate permeabilizing activity in this context, 40 mg/ml galantamine in the lactate salt form was combined with 25, 50, and 100 μM PN159 in solution, pH 5.0 and osmolarity ˜270 mOsm. The combination was tested using an in vitro epithelal tissue model to monitor galantamine permeation, transepithelial electrical resistance (TER), and the cytotoxicity of the formulation by LDH and MTT assays.
For this purpose, in vitro tissue studies were performed on salmon calcitonin as a model therapeutic peptide in the absence and presence of […] PN159.

[2] = Intranasal PYY(3-36) pharmacokinetics in rabbits with various TJMPs (Example 10); assay type: in vivo, New Zealand White rabbits; details: for AUCinf / AUClast / Cmax / T1/2 / Tmax: PYY(3-36) in plasma, 205 μg/kg intranasal with the named TJMP (concentration per Table 11, 50-1000 μM) or PBS, mean; for AUCinf / AUClast / Cmax / T1/2 / Tmax / In Vivo Tier Ranking: rabbit; for In Vivo Tier Ranking: PYY(3-36) 205 μg/kg intranasal, TJMP concentration per Table 11: PN159 50 μM, PN161, PN202 100 μM, PN27 250 μM, PN58, PN73, PN228 500 μM, PN183, PN556 1000 μM; for in vivo permeability relative to PN159: PYY(3-36) intranasal in rabbits, TJMPs at the concentrations tested
Description: The tubes were chilled until […].

[3] = system: human-derived tracheal/bronchial epithelial cells (EpiAirway™ Tissue model system); experiment: Cytotoxicity (LDH assay), EpiAirway tissue model; assay type: cell-based
Procedure: The amount of cell death was assayed by measuring the release of lactate dehydrogenase (LDH) from the cells into the apical medium using a CytoTox 96 Cytotoxicity Assay Kit (Promega Corp., Madison, Wis.). One percent Octylphenolpoly (ethyleneglycolether)×(Triton X-100™) diluted in phosphate buffered saline (PBS) causes 100% lysis in cultured cells and served herein as a positive control for the LDH assay. Following the one hour incubation period with a test formulation (refer to Table 4 in Example 2 for details of test formulations), the total liquid volume of each insert was brought to a final volume of 200 μl with culture medium. The apical medium was then mixed by pipetting four times with a multichannel pipette set to a 100 μl volume. After mixing, a 100 μl sample from the apical side of each insert was transferred to a new 96-well plate. The apical media samples were sealed with a plate sealer and stored at room temperature for same day analysis or stored overnight at 4° C. for analysis the next day. To measure LDH levels, 5 μl of the 100 μl apical media sample was diluted in 45 μl DPBS in a new 96-well plate. Fresh, cell-free culture medium will be used as a blank. Fifty microliters of substrate solution was added to each well and incubated for 30 minutes at room temperature away from direct light. Following the 30 minute incubation, 50 μl of stop solution was added to each well. Optical density (OD) was measured at 490 nm with a uQuant absorbance plate reader from Biotek Instruments. The measurement of LDH release into the apical media indicates relative cytotoxicity of the samples. Percent cytotoxicity for each test formulation was calculated by subtracting the measured absorbance of the PBS control (basal level of LDH release) from the measured absorbance of the individual test formulation and then dividing that value by the measured absorbance for the 1% Triton X-100™ positive control, multiplied by 100.
The formula used to calculate percent cytotoxicity is as follows: [formula] Osmolality
Of the total 300 μl volume for each test formulation, only a 20 μl sample was applied to the human-derived tracheal/bronchial epithelial cells (EpiAirway™ Tissue model system) in order to assess the effect each test formulation had on TER, LDH and sample permeation.

| Compound | AUCinf [2] [pg·min/mL] | AUClast [2] [pg·min/mL] | Cmax [2] [ng/mL] | T1/2 [2] [min] | Tmax [2] [min] | other results |
| --- | --- | --- | --- | --- | --- | --- |
| CC(C)C[C@H](NC(=O)[C@H](CCCCN)NC(=O)CNC(=O)[C@H](CC(C)C)NC(=O)[C@@H](NC(=O)[C@@H]1CSSC[C@H](N)C(=O)N[C@@H](CO)C(=O)N[C@@H](CC(N)=O)C(=O)N[C@@H](CC(C)C)C(=O)N[C@@H](CO)C(=O)N[C@@H]([C@@H](C)O)C(=O)N1)C(C)C)C(=O)N[C@@H](CO)C(=O)N[C@@H](CCC(N)=O)C(=O)N[C@@H](CCC(=O)O)C(=O)N[C@@H](CC(C)C)C(=O)N[C@@H](Cc1c[nH]cn1)C(=O)N[C@@H](CCCCN)C(=O)N[C@@H](CC(C)C)C(=O)N[C@@H](CCC(N)=O)C(=O)N[C@H](C(=O)N[C@@H](Cc1ccc(O)cc1)C(=O)N1CCC[C@H]1C(=O)N[C@@H](CCCNC(=N)N)C(=O)N[C@H](C(=O)N[C@@H](CC(N)=O)C(=O)N[C@H](C(=O)NCC(=O)N[C@@H](CO)C(=O)NCC(=O)N[C@H](C(=O)N1CCC[C@H]1C(N)=O)[C@@H](C)O)[C@@H](C)O)[C@@H](C)O)[C@@H](C)O [Calcitonin, salmon calcitonin] |  |  |  |  |  | fold increase in Papp of calcitonin with PN159 [1]: 23-47 fold |
| COc1ccc2c3c1O[C@H]1C[C@@H](O)C=C[C@@]31CCN(C)C2 [Galantamine, galantamine] |  |  |  |  |  | fold increase in Papp of galantamine with PN159 ([1]; 40 mg/ml galantamine lactate, pH 5.0, with 25, 50, 100 PN159 versus without): 2.5-3.5 fold; Papp ([1]; [PN159] 0 μM): 2.1 ×10⁻⁶ cm/s; Papp ([1]; [PN159] 0 μM, listed as galantamine): about 2.1×10^−6 cm/s; Papp ([1]; [PN159] 25 μM): 5.1 ×10⁻⁶ cm/s; Papp ([1]; [PN159] 50 μM): 6.2 ×10⁻⁶ cm/s; Papp ([1]; [PN159] 100 μM): 7.2 ×10⁻⁶ cm/s |
| CC[C@H](C)[C@H](NC(=O)[C@H](CCCCN)NC(=O)[C@@H](NC(=O)[C@H](CCC(N)=O)NC(=O)[C@@H](N)CCCNC(=N)N)[C@@H](C)CC)C(=O)N[C@@H](Cc1c[nH]c2ccccc12)C(=O)N[C@@H](Cc1ccccc1)C(=O)N[C@@H](CCC(N)=O)C(=O)N[C@@H](CC(N)=O)C(=O)N[C@@H](CCCNC(=N)N)C(=O)N[C@@H](CCCNC(=N)N)C(=O)N[C@@H](CCSC)C(=O)N[C@@H](CCCCN)C(=O)N[C@@H](Cc1c[nH]c2ccccc12)C(=O)N[C@@H](CCCCN)C(=O)N[C@@H](CCCCN)C(N)=O [PN58] | 871000 | 830000 | 12.8 | 29.5 | 43.0 |  |
| CC[C@H](C)[C@H](NC(=O)[C@H](CCCCN)NC(=O)[C@H](CCCCN)NC(=O)[C@H](C)NC(=O)[C@H](CC(C)C)NC(=O)[C@H](C)NC(=O)[C@H](C)NC(=O)[C@H](CC(C)C)NC(=O)[C@H](C)NC(=O)[C@H](CCCCN)NC(=O)[C@H](CC(C)C)NC(=O)[C@H](CC(N)=O)NC(=O)[C@@H](NC(=O)[C@H](CCCCN)NC(=O)CNC(=O)[C@H](CC(C)C)NC(=O)[C@H](CC(C)C)NC(=O)[C@H](Cc1ccc(O)cc1)NC(=O)CNC(=O)[C@H](C)NC(=O)[C@H](CO)NC(=O)[C@H](CC(N)=O)NC(=O)[C@H](CC(C)C)NC(=O)[C@@H](NC(=O)[C@H](Cc1c[nH]c2ccccc12)NC(=O)CN)[C@@H](C)O)[C@@H](C)CC)C(=O)N[C@@H](CC(C)C)C(N)=O [PN161] | 1.65e+06 | 1.62e+06 | 32.1 | 34.3 | 24.0 | In Vivo Tier Ranking [2]: I; in vivo permeability relative to PN159 [2]: comparable to PN159 |
| CC[C@H](C)[C@H](NC(=O)[C@H](CCC(=O)O)NC(=O)[C@H](CO)NC(=O)[C@@H](NC(=O)[C@@H](N)CO)C(C)C)C(=O)N[C@@H](CCC(N)=O)C(=O)N[C@@H](CC(C)C)C(=O)N[C@@H](CCSC)C(=O)N[C@@H](Cc1cnc[nH]1)C(=O)N[C@@H](CC(N)=O)C(=O)N[C@@H](CC(C)C)C(=O)NCC(=O)N[C@@H](CCCCN)C(=O)N[C@@H](Cc1cnc[nH]1)C(=O)N[C@@H](CC(C)C)C(=O)N[C@@H](CC(N)=O)C(=O)N[C@@H](CO)C(=O)N[C@@H](CCSC)C(=O)N[C@@H](CCC(=O)O)C(=O)N[C@@H](CCCN=C(N)N)C(=O)N[C@H](C(=O)N[C@@H](CCC(=O)O)C(=O)N[C@@H](Cc1c[nH]c2ccccc12)C(=O)N[C@@H](CC(C)C)C(=O)N[C@@H](CCCN=C(N)N)C(=O)N[C@@H](CCCCN)C(=O)N[C@@H](CCCCN)C(=O)N[C@@H](CC(C)C)C(=O)N[C@@H](CCC(N)=O)C(=O)N[C@@H](CC(=O)O)C(=O)N[C@H](C(=O)N[C@@H](Cc1cnc[nH]1)C(=O)N[C@@H](CC(N)=O)C(=O)N[C@@H](Cc1ccccc1)C(=O)O)C(C)C)C(C)C [PTH1-34, human parathyroid hormone 1-34] |  |  |  |  |  | fold increase in Papp of PTH1-34 with PN159 [1]: 3-5 fold |
| AAVALLPAVLLALLAPRKKRRQRRRPPQ-NH2 [PN27] | 1.71e+06 | 1.67e+06 | 29.3 | 29.9 | 33.0 | In Vivo Tier Ranking [2]: I; in vivo permeability relative to PN159 [2]: comparable to PN159 |
| KETWWETWWTEWSQPGRKKRRQRRRRPPQ-NH2 [PN183] | 275000 | 258000 | 5.45 | 33.7 | 22.0 |  |
| KLWSAWPSLWSSLWKP-NH2 [PN228] | 1.08e+06 | 1.06e+06 | 21.2 | 30.4 | 31.0 |  |
| LRKLRKRLLRLRKLRKRLLR-NH2 [PN745] |  |  |  |  |  | LDH ([3]; 25 μM peptide, 1 h incubation, % of 1% Triton X-100 control): 11%; LDH ([3]; 100 μM peptide, 1 h incubation, % of 1% Triton X-100 control): 28%; LDH ([3]; 250 μM peptide, 1 h incubation, % of 1% Triton X-100 control): 45%; LDH ([3]; 500 μM peptide, 1 h incubation, % of 1% Triton X-100 control): 45%; LDH ([3]; 1000 μM peptide, 1 h incubation, % of 1% Triton X-100 control): 45% |
| Octylphenolpoly (ethyleneglycolether)× [Triton X-100, reference compound] |  |  |  |  |  | LDH ([3]; 1% Triton X-100, positive (100% release) control): 100% |
